Measurements from US11992497B2 (priority 2021, dated 2024).
“Also recorded” adds a separate entry of the source. Where two headings read alike, the source gives them in different places.

Legend:
PTZ-induced seizure = experiment: PTZ-induced epilepsy mouse model; assay type: in vivo; settings: for Latency to Clonic Seizure Event compared to PTZ alone / Latency to First Seizure Event compared to PTZ alone / Latency to Tonic Seizure Event compared to PTZ alone / Percent of animals reaching Tonic-clonic Stage 6 compared to PTZ alone / Racine scores over 5 minute intervals for 30 minutes compared to PTZ alone / Survival Effects: mortality rate compared to the vehicle/PTZ group: PTZ 80 mg/kg, CBD 100 mg/kg 60 minutes prior, Compound 3 100 mg/kg 30 minutes prior to PTZ
Text: Mouse models using GABAa receptor antagonist Pentylenetetrazol (PTZ) are well defined and used as a standard for the identification of potential anticonvulsants to treat generalized clonic seizures (Loscher et al., 1991 Epilepsy Res 8:171-189). The purpose of this study was to evaluate and compare CBD to test article Compound 3, on their therapeutic effects in a mouse model of PTZ-induced seizure. To match up test article plasma concentration time max (Tmax) with the PTZ induced seizures; test articles were administered at 60 minutes and 30 minutes prior to PTZ administration respectively. Vehicle used for treatment groups was 10% EtOH/10% Tween 80/80% Saline.
Mice were acclimated to the procedure room for at least 30 minutes.
Pentylenetetrazole (PTZ; Sigma Aldrich) was formulated in water to a concentration of 16 mg/mL. Injections of PTZ were made at a volume of 5 mL/kg to produce a final dose of 80 mg/kg. […] A 30- • minute maximum latency to seizure was imposed. • Clinical behavior was scored using the following adapted Racine scale: • Score 0, no seizures observed • Score 1, Behavioral arrest (freezing, fixed gaze, staring), vibrissae twitching, • mouth or facial clonus • Score 2, Pop or jump, straub tail, foot splay, head nodding • Score 3, Forelimb clonus, extended forelimbs, multiple pops or jerks • Score 4, Rearing and bilateral forelimb clonus, Running and running/bouncing • Score 5, All limb clonus, rearing and falling (stay fallen on rear side) • Score 6, Tonic hindlimb extensions, cardiac arrest
Behavior was scored by an observer blind to treatment. The highest score reached during every 5 minute period during the 30 minutes after PTZ was administered was recorded. Additionally, the percent tonic-clonic (number of animals progressing to the highest seizure score), and percent mortality was also calculated.

[1] = PK and Tmax of CBD and Compound 3 after IP administration; assay type: in vivo; settings: male C57BL/6 mice; for Cmax / AUC(0-t): mouse, in vivo; for AUC(0-t): read-out: AUC(0-t) (obs area)
Text: The purpose of this study was to determine the pharmacokinetics and time of maximum plasma (Tmax) of the test articles (TA) CBD and Compound 3 following intraperitoneal (IP) administration to male C57BL/6 mice. This method of TA delivery, dose and mouse strain was to be used in a subsequent Pentylenetetrazol (PTZ) induced seizure model for the evaluation of the TA's for anti-epileptic activity.

[2] = tested on: lipopolysaccharide (LPS)-induced inflammation; experiment: Rat LPS model, serum pro-inflammatory cytokines; assay type: in vivo, Sprague Dawley rats; settings: oral, 4 days; 2 h after LPS
Protocol: This assay was employed to determine the efficacies of CBG, compound 1, and compound 2 against lipopolysaccharide (LPS)-induced inflammation in Sprague Dawley rats.
Eight- to 10-week-old male rats were treated with CBG, Compound 1, and Compound 2, or a positive control (cyclosporin A) for four days prior to treatment with LPS. Twenty-eight (28) Sprague Dawley male rats, 8-10 weeks old, were used for this study. Animals were randomized by weight into one of 7 treatment groups as shown in Table 10 below and treated for 4 days with either vehicle control (Groups 1 and 2), Cyclosporin A (Neoral) (Group 3), CBG at 30 mg/kg (Group 4), Compound 1 at 31.5 mg/kg (Group 5), Compound 2 at 32.7 mg/kg (Group 6) or CBG at 30 mg/kg (intraperitoneal/IP; Group 7). Groups 1-6 were dosed for 4 days by oral gavage; group 7 was dosed for 4 days by IP injection. After the 4th injection, Groups 2-7 received a single IP injection of LPS at 5 mg/kg to induce inflammation. Body weight was recorded every other day starting on the day of or day prior to the first day of treatment. A terminal body weight was recorded. General health and clinical signs were recorded once daily. Blood was collected to isolate immune cells at 2 hours after the LPS injection. […]
Serum samples (N=82) were processed and shipped to Inotiv Boulder for analysis. […] The samples were analyzed for cytokine levels using the RECYTMAG-65K Luminex™ kit. […]

HCT116 = experiment: GI50 by MTS assay; assay type: cell-based; settings: MTS assay, HCT116, 48 hours
Protocol: For MTS assay, the compounds have been tested at 8 concentrations on 4 colon cancer cell lines for 48 hours. The compounds, concentrations and colon cancer cell line panel tested are the following: • CBG: 0 μM, 1.25 μM, 2.5 μM, 5 μM, 10 μM, 20 μM, 40 μM, and 80 μM. • Compound 1: 0 μM, 1.25 μM, 2.5 μM, 5 μM, 10 μM, 20 μM, 40 μM, and 80 μM. • Compound 2: 0 μM, 1.25 μM, 2.5 μM, 5 μM, 10 μM, 20 μM, 40 μM, and 80 μM. • Colon cancer cell line panel: SW620, HCT15, HT29, HCTl16
Four colon cancer cell lines of SW620, HCT15, HT29, and HCT116 were included in the colon cancer cell line panel.
CBG, compound 1 and compound 2 were dissolved in DMSO at a concentration of 10 mM and stored at −20° C.
Evaluation of DM compounds treatment-induced growth inhibition was performed to determine the GI50 of four colon cancer cell lines with MTS assay or clonogenic assay. Each experiment was repeated in triplicate. In GraphPad Prism, data were log-transformed and fit with a nonlinear curve to calculate the GI50.
MTS assay. cells were plated at 96 well plates at a density of 1,000 cells per well. After 24 hours, cells were treated with DM compounds at increasing concentrations or DMSO vehicle and incubated for 48 hours. 20 μl of MTS reagent (Promega) was then added and incubated for 2 hours. The absorbance was measured with a microplate reader at 490 nm. Each experiment was repeated in triplicate. In GraphPad Prism, data were log-transformed and fit with a nonlinear curve to calculate the GI50.

UGT1A4 = biological target: T1, UGT1A4 (Homo sapiens, UniProt P22310); experiment: UGT reaction phenotyping, recombinant Supersomes; assay type: in vitro ADME
T1 construct: purchased BD Biosciences
T1 sequence (P22310 29-534): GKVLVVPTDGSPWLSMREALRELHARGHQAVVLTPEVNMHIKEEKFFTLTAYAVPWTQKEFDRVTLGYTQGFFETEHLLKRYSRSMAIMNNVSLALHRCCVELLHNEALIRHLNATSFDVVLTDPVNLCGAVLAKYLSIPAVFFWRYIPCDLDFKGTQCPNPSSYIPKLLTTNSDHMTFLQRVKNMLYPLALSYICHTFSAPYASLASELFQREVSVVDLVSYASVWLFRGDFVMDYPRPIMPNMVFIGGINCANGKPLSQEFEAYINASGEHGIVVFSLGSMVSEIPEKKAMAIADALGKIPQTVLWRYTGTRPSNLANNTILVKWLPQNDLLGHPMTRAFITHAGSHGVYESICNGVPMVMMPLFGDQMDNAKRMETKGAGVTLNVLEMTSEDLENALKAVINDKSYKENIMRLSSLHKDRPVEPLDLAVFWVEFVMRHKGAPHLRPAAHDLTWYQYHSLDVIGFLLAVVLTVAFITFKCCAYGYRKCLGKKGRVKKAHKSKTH
Text: Experimental Summary: UGT Reaction Phenotyping (7 Isoforms).

Row | SMILES | Latency to Clonic Seizure Event compared to PTZ alone (PTZ-induced seizure) | Latency to First Seizure Event compared to PTZ alone (PTZ-induced seizure) | Latency to Tonic Seizure Event compared to PTZ alone (PTZ-induced seizure) | Percent of animals reaching Tonic-clonic Stage 6 compared to PTZ alone (PTZ-induced seizure) | Racine scores over 5 minute intervals for 30 minutes compared to PTZ alone (PTZ-induced seizure) | Survival Effects: mortality rate compared to the vehicle/PTZ group (PTZ-induced seizure) | Cmax ([1]; plasma, 100 mg/kg IP) [ng/mL] | AUC(0-t) ([1]; plasma, 100 mg/kg IP) [ng·h/mL] | other results
1 | C=C(C)[C@@H]1CCC(C)=C[C@H]1c1c(O)cc(CCCCC)cc1OC [Compound 3, (1′R,2′R)-6-methoxy-5′-methyl-4-pentyl-2′-(prop-1-en-2-yl)-1′,2′,3′,4′-tetrahydro-[1,1′-biphenyl]-2-ol] | did not yield a significantly different latency; also recorded: strong trend toward longer latency | trended towards a longer latency than PTZ alone, although the difference was not significant | significantly longer latency | significantly lower proportion | significant improvement in Racine scores | significantly reduced mortality rate | 21800 | 30200 | overall anti-epileptic activity (in words) (PTZ-induced seizure; PTZ seizure model): clear anti-epileptic therapeutic activity; Cmax relative to CBD ([1]; IP): 8 fold; plasma PK Area Under the Curve (AUC) relative to CBD ([1]; IP): over 4 fold; TMax ([1]; plasma, 100 mg/kg IP): 0.5 h; reduction of IL-1B and IFNy relative to CBG (in words) [2]: equal to or better than CBG
2 | CCCCCc1cc(O)c(C/C=C(\C)CCC=C(C)C)c(OC)c1 [Cmpd1] |  |  |  |  |  |  |  |  | GI50 (HCT116; average of N1-N3, read-out: GI50 AVG): 10.3 µM; GI50 (HCT116; replicate N1, read-out: GI50 N1): 10.5 µM; GI50 (HCT116; replicate N2, read-out: GI50 N2): 9.96 µM; GI50 (HCT116; replicate N3, read-out: GI50 N3): 10.5 µM
3 | CN1CCN(CCCN2c3ccccc3Sc3ccc(C(F)(F)F)cc32)CC1 [Trifluoperazine, trifluoperazine] |  |  |  |  |  |  |  |  | microsomal CLint at 1 µM (UGT1A4; human, recombinant UGT1A4 Supersomes, pH 7.4, Test Conc. 1 μM, read-out: Recombinant UGT CLINT Clearance): 0.7 µL/min/mg; half-life at 1 µM (UGT1A4; human, recombinant UGT1A4 Supersomes, pH 7.4, Test Conc. 1 μM, read-out: Recombinant UGT Half Life T1/2): 16.4 h
4 | C[N+]1([C@@H]2O[C@H](C(=O)[O-])[C@@H](O)[C@H](O)[C@H]2O)CCN(CCCN2c3ccccc3Sc3ccc(C(F)(F)F)cc32)CC1 [Trifluoperazine Glucuronide] |  |  |  |  |  |  |  |  | average peak area ratio at 60 min/average peak area ratio at 0 min (printed in the half-life column) (UGT1A4; Test Conc. 1 μM): *6.38
5 | C=C(C)[C@@H]1CCC(C)=C[C@H]1c1c(O)cc(CCCCC)cc1O [CBD, cannabidiol, reference compound] | did not yield a significantly different latency | did not result in a difference in latency to first seizure | did not yield a significantly different latency | did not yield a significantly difference in proportion; also recorded: did not yield a significant difference in proportion | did not yield a significant change in clinical score | did not yield a significantly reduced mortality rate | 2730 | 6830 | Tmax (in words) ([1]; IP): two separate Tmax peaks
